These results are taken from patent US8835470B2, “Mandelamide heterocyclic compounds” (Bristol-Myers Squibb Company, priority 2010, dated 2014).

Structures can show the parent of a compound that is named as a salt. Some results are limits rather than exact numbers.

A word on the EC50: it is the concentration at which the effect is half-maximal. As a reminder, the IC50 is the concentration at which inhibition is half-maximal. Read a low IC50 as greater potency in that assay. In general, inhibition in vivo refers to the change of the read-out against control, counted positive when it falls. Lower therefore signals a weak effect.

Assay [1] has as its target S1P3 (Homo sapiens (Human), UniProt Q99500). The experiment in a line: Receptor [35S] GTPγS Binding Assay, S1P3. Type of assay: biochemical. The following applies: membranes from EDG3-Ga15-bla HEK293T cells; * detection limit 62,500 nM, ** detection limit 32,500 nM. As to the method:
(§1) Receptor [35S] GTPγS Binding Assays
(§2) Compounds were loaded in a 384 FALCON® v-bottom plate (0.5 μl/well in a 3-fold dilution). Membranes prepared from S1P1/CHO cells or EDG3-Ga15-bla HEK293T cells were added to the compound plate (40 μl/well, final protein 3 μg/well) with MULTIDROP®. [^35S]GTP (1250 Ci/mmol, Perkin Elmer) was diluted in assay buffer: 20 mM HEPES, pH7.5, 10 mM MgCl2, 150 mM NaCl, 1 mM EGTA, 1 mM DTT, 10 μM GDP, 0.1% fatty acid free BSA, and 10 μg/ml Saponin to 0.4 nM. 40 μl of the [^35S] GTP solution was added to the compound plate with a final concentration of 0.2 nM. The reaction was kept at room temperature for 45 min. At the end of incubation, all the mixtures in the compound plate were transferred to a 384 well FB filter plates via GPCR robot system. The filter plate was washed with water 4 times by using the modified manifold Embla plate washer and dried at 60° C. for 45 min. 30 μl of MicroScint 20 scintillation fluid was added to each well for counting at Packard TOPCOUNT®. EC50 is defined as the agonist concentration that corresponds to 50% of the Ymax (maximal response) obtained for each individual compound tested.
A smaller value for GTPγS S1P1 EC50 value indicated greater activity for the compound in the GTPγS S1P1 binding assay. A larger value for the GTPγS S1P3 EC50 value indicated less activity in the GTPγS S1P3 binding assay.
A general note: GTPγS is a poorly hydrolysed GTP analogue; its binding reports G protein activation.

In assay [2] the target is T1, S1P1 (Homo sapiens (Human), UniProt P21453). Briefly: S1P1 Binding Assay. The following applies: membranes from CHO cells expressing human S1P1; 33P-S1P ligand; rounded to two digits. As to the method:
Membranes were prepared from CHO cells expressing human S1P1. Cells were dissociated in buffer containing 20 mM HEPES, pH 7.5, 50 mM NaCl, 2 mM EDTA and Protease Inhibitor cocktail (Roche), and disrupted on ice using the Polytron homogenizer. The homogenate was centrifuged at 20,000 rpm (48,000 G) and the supernatant was discarded. The membrane pellets were resuspended in buffer containing 50 mM HEPES, pH 7.5, 100 mM NaCl, 1 mM MgCl2, 2 mM EDTA and stored in aliquots at −80° C. after protein concentration determination. Membranes (2 μg/well) and 0.03 nM final concentration of ^33P-S1P ligand (1 mCi/ml, American Radiolabeled Chemicals) were added to the compound plates. Binding was performed for 45 minutes at room temperature, terminated by collecting the membranes onto GF/B filter plates, and radioactivity was measured by TOPCOUNT®. The competition data of the test compounds over a range of concentrations was plotted as percentage inhibition of radioligand specific binding. The IC50 is defined as the concentration of competing ligand needed to reduce specific binding by 50%.
The results in Table A were rounded to two digits.

For assay [3], the system named is circulating lymphocytes. Briefly: Blood Lymphocyte Reduction Assay (BLR) in Rodents. The following applies: Rattus norvegicus, Lewis rats, oral, 4 hr, vs vehicle group. Type of assay: in vivo. The protocol:
Blood Lymphocyte Reduction Assay (BLR) in Rodents
Lewis rats were dosed orally with test article (as a solution or suspension in the vehicle) or vehicle alone (polyethylene glycol 300, “PEG300”). Blood was drawn at 4 hr by retro-orbital bleeding. Blood lymphocyte counts were determined on an ADVIA® 120 Hematology Analyzer (Siemens Healthcare Diagnostics). The results were measured as a reduction in the percentage of circulating lymphocytes as compared to the vehicle treated group at the 4 hr measurement. The results represent the average results of all animals within each treatment group (n=3-4).
The following examples were tested in the Blood Lymphocyte Reduction assay (BLR) described hereinabove and the results are shown in Table D for rats.

The target in assay [4] is T1, S1P1. Briefly: Receptor [35S] GTPγS Binding Assay, S1P1. Type of assay: biochemical. The following applies: for EC50: membranes from S1P1/CHO cells, [35S]GTP; for GTPγS S1P3/S1P1: ratio of GTPγS S1P3 EC50 to GTPγS S1P1 EC50, * and ** S1P3 value at detection limit. As to the method: as §1
as §2, with “Membranes” for “Compounds were loaded in a 384 FALCON® v-bottom plate (0.5 μl/well in a 3-fold dilution). Membranes”, “TOPCOUNT®.” for “TOPCOUNT®. EC50 is defined as the agonist concentration that corresponds to 50% of the Ymax (maximal response) obtained for each individual compound tested.”
A larger value for the GTPγS S1P3 EC50 value indicated less activity in the GTPγS S1P3 binding assay.

T1 sequence (P21453 whole entry): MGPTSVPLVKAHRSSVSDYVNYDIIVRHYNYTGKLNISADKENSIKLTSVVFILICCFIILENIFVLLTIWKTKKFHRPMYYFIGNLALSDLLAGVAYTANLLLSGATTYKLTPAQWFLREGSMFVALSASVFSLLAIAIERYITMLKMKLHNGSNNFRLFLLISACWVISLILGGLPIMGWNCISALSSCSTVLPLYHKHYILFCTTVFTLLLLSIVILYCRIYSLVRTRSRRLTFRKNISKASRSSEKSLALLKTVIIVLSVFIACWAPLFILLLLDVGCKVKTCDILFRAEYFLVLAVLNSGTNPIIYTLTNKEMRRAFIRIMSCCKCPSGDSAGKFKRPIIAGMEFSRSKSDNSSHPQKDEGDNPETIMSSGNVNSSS
Sequence of S1P3 (Q99500 whole entry): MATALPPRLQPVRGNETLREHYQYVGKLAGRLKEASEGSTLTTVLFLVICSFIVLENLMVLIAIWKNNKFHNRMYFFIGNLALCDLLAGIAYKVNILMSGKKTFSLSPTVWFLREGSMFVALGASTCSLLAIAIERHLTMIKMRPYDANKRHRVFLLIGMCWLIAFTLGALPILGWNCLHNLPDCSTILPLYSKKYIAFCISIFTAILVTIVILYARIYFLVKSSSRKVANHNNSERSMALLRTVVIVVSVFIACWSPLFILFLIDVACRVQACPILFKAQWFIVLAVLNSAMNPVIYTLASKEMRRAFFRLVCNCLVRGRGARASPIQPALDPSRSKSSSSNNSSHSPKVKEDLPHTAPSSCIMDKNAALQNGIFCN

As to `CN(C)C(=O)CCNC(=O)C(O)c1ccc(-c2noc(-c3onc(-c4ccccc4)c3C(F)(F)F)n2)cc1` (single isomer, unassigned) [Example 74, 3-(2-Hydroxy-2-(4-(5-(3-phenyl-4-(trifluoromethyl)isoxazol-5-yl)-1,2,4-oxadiazol-3-yl)phenyl)acetamido)-N,N-dimethylpropanamide], it took 3.43 µM to reach a half-maximal effect in assay [1] (EC50). In assay [2], this compound returned a 50% inhibitory concentration (IC50) of 0.0003 µM. This compound displayed an inhibition in vivo at 3 mg/kg in assay [3] of 84%. Further, in assay [4], the EC50 is 0.0019 µM and the “GTPγS S1P3/S1P1” value is given as 1805.
`CC(C)(O)CNC(=O)CCNC(=O)C(O)c1ccc(-c2noc(-c3onc(-c4ccccc4)c3C(F)(F)F)n2)cc1` (single isomer, unassigned) [Example 6, 3-(2-Hydroxy-2-(4-(5-(3-phenyl-4-(trifluoromethyl)isoxazol-5-yl)-1,2,4-oxadiazol-3-yl)phenyl)acetamido)-N-(2-hydroxy-2-methylpropyl)propanamide] returned an EC50 in assay [1] of 3.13 µM. In assay [2], the IC50 amounted to 0.00046 µM. The inhibition in vivo at 3 mg/kg in assay [3] came to 73%. Also, in assay [4], the EC50 was 0.00067 µM and the “GTPγS S1P3/S1P1” value is 4679.
Take `O=C(NC1CCS(=O)(=O)C1)C(O)c1ccc(-c2noc(-c3onc(-c4ccccc4)c3C(F)(F)F)n2)cc1` (stereo not drawn) [Example 31, 2-Hydroxy-2-(4-(5-(3-phenyl-4-(trifluoromethyl)isoxazol-5-yl)-1,2,4-oxadiazol-3-yl)phenyl)-N-(3,3-dioxide-tetrahydrothiophen-3-yl)acetamide]: it took 9.54 µM to reach a half-maximal effect in assay [1] (EC50). The compound also came in with an IC50 in assay [2] of 0.0045 µM. The compound further returned an inhibition in vivo at 1 mg/kg in assay [3] of 54%. Also, in assay [4], the EC50 is 0.0119 µM and the “GTPγS S1P3/S1P1” value was found to be 802.
The compound `O=C(NCCC(=O)N1CC(O)C1)C(O)c1ccc(-c2noc(-c3onc(-c4ccccc4)c3C(F)(F)F)n2)cc1` (racemic) [Example 93, (R/S)-2-Hydroxy-N-(3-(3-hydroxyazetidin-1-yl)-3-oxopropyl)-2-(4-(5-(3-phenyl-4-(trifluoromethyl)isoxazol-5-yl)-1,2,4-oxadiazol-3-yl)phenyl)acetamide] had an EC50 in assay [1] of 12 µM. This compound returned an IC50 in assay [2] of 0.0029 µM. In assay [3], this compound showed an inhibition in vivo at 3 mg/kg of 73%. Moreover, in assay [4], the EC50 worked out at 0.0058 µM and the “GTPγS S1P3/S1P1” value is listed as 2060.
Consider `O=C(NCCO)C(O)c1ccc(-c2noc(-c3onc(-c4ccccc4)c3C(F)(F)F)n2)cc1` (single isomer, unassigned) [Example 71, 2-Hydroxy-N-(2-hydroxyethyl)-2-(4-(5-(3-phenyl-4-(trifluoromethyl)isoxazol-5-yl)-1,2,4-oxadiazol-3-yl)phenyl)acetamide], for which the EC50 was found to be 10.5 µM in assay [1] and 0.002 µM in assay [4]. In assay [2], this compound displayed an IC50 of 0.00085 µM. This compound showed an inhibition in vivo at 1 mg/kg in assay [3] of 71%. In assay [4], the “GTPγS S1P3/S1P1” value is listed as 5234.
The compound `C[C@@H](C#N)NC(=O)C(O)c1ccc(-c2noc(-c3onc(-c4ccccc4)c3C(F)(F)F)n2)cc1` (stereo partly drawn) [Example 40, N-((S)-1-Cyanoethyl)-2-hydroxy-2-(4-(5-(3-phenyl-4-(trifluoromethyl)isoxazol-5-yl)-1,2,4-oxadiazol-3-yl)phenyl)acetamide] showed an inhibition in vivo at 1 mg/kg in assay [3] of 80%.
Turning to `O=C(NCc1ncc[nH]1)C(O)c1ccc(-c2noc(-c3onc(-c4ccccc4)c3C(F)(F)F)n2)cc1` (single isomer, unassigned) [Example 17, N-((1H-Imidazol-2-yl)methyl)-2-hydroxy-2-(4-(5-(3-phenyl-4-(trifluoromethyl)isoxazol-5-yl)-1,2,4-oxadiazol-3-yl)phenyl)acetamide-TFA], the EC50 came to 6.91 µM in assay [1] and 0.0067 µM in assay [4]. Further, in assay [2], the IC50 was found to be 0.0067 µM. This compound gave an inhibition in vivo at 3 mg/kg in assay [3] of 69%. Besides, in assay [4], the “GTPγS S1P3/S1P1” value is 1031.
For the compound `O=C(NCC1CCCN1)C(O)c1ccc(-c2noc(-c3onc(-c4ccccc4)c3C(F)(F)F)n2)cc1` (racemic) [Example 88, (R/S)-2-Hydroxy-2-(4-(5-(3-phenyl-4-(trifluoromethyl)isoxazol-5-yl)-1,2,4-oxadiazol-3-yl)phenyl)-N-(pyrrolidin-2-ylmethyl)acetamide, TFA], in assay [1], the midpoint of the response, the EC50, lay at 5.94 µM. In assay [2], this compound showed an IC50 of 0.029 µM. Besides, in assay [4], the 50% effective concentration (EC50) worked out at 0.102 µM and the “GTPγS S1P3/S1P1” value is recorded as 58.
Regarding `O=C(NCc1ccccn1)C(O)c1ccc(-c2noc(-c3cnn(-c4ccccc4)c3C(F)(F)F)n2)cc1` (racemic) [Example 137, (R/S)-2-hydroxy-2-(4-(5-(1-phenyl-5-(trifluoromethyl)-1H-pyrazol-4-yl)-1,2,4-oxadiazol-3-yl)phenyl)-N-(pyridin-2-ylmethyl)acetamide], the EC50 amounted to 11 µM in assay [1] and 0.0414 µM in assay [4]. In assay [2], this compound displayed an IC50 of 0.0049 µM. Also, in assay [4], the “GTPγS S1P3/S1P1” value amounted to 267.
In assay [1], `N#CC1(NC(=O)C(O)c2ccc(-c3noc(-c4onc(-c5ccccc5)c4C(F)(F)F)n3)cc2)CC1` (single isomer, unassigned) [Example 41, N-(1-Cyanocyclopropyl)-2-hydroxy-2-(4-(5-(3-phenyl-4-(trifluoromethyl)isoxazol-5-yl)-1,2,4-oxadiazol-3-yl)phenyl)acetamide] came in with a concentration giving a half-maximal response (EC50) of 3.64 µM. Further, in assay [2], the IC50 worked out at 0.0026 µM. In assay [3], this compound gave an inhibition in vivo at 1 mg/kg of 80%. Also, in assay [4], the EC50 came to 0.0157 µM and the “GTPγS S1P3/S1P1” value is recorded as 232.
As for `O=C(NC1CNC1)C(O)c1ccc(-c2noc(-c3onc(-c4ccccc4)c3C(F)(F)F)n2)cc1` (single isomer, unassigned) [Example 30, N-(Azetidin-3-yl)-2-hydroxy-2-(4-(5-(3-phenyl-4-(trifluoromethyl)isoxazol-5-yl)-1,2,4-oxadiazol-3-yl)phenyl)acetamide-TFA], the EC50 in assay [1] was above 31.2 µM; in assay [4], 0.0509 µM. In assay [2], the IC50 was determined as 0.0045 µM. For the same compound, the “GTPγS S1P3/S1P1” value in assay [4] was > 614**.
As for `CC(C)(C)OC(=O)NCCNC(=O)C(O)c1ccc(-c2noc(-c3onc(-c4ccccc4)c3C(F)(F)F)n2)cc1` (racemic) [Example 51, (R/S)-tert-Butyl 2-(2-hydroxy-2-(4-(5-(3-phenyl-4-(trifluoromethyl)isoxazol-5-yl)-1,2,4-oxadiazol-3-yl)phenyl)acetamido)ethylcarbamate], the 50% effective concentration (EC50) is 13.6 µM in assay [1] and 0.0894 µM in assay [4]. In assay [2], this compound displayed an IC50 of 0.031 µM.
